From ChEMBL document CHEMBL3813616, “Discovery of novel 7-azaindoles as PDK1 inhibitors” (Bioorg Med Chem Lett, 2016)
pIC50: −log10 of the molar value.

Legend:
[1] = target: MAP kinase-activated protein kinase 2 (Homo sapiens) (UniProt P49137); experiment: Inhibition of human MAPKAPK2 (46 to 400 residues) assessed as enzyme activity at 1 uM using 33P ATP by radioactive filter binding assay; set-up: scale not given: the % may be the effect or the level left
[2] = target: T1, Serine/threonine-protein kinase Sgk1 (Homo sapiens) (UniProt O00141); experiment: Inhibition of human SGK assessed as enzyme activity at 1 uM using 33P ATP by radioactive filter binding assay; set-up: scale not given: the % may be the effect or the level left
T1 sequence (whole entry): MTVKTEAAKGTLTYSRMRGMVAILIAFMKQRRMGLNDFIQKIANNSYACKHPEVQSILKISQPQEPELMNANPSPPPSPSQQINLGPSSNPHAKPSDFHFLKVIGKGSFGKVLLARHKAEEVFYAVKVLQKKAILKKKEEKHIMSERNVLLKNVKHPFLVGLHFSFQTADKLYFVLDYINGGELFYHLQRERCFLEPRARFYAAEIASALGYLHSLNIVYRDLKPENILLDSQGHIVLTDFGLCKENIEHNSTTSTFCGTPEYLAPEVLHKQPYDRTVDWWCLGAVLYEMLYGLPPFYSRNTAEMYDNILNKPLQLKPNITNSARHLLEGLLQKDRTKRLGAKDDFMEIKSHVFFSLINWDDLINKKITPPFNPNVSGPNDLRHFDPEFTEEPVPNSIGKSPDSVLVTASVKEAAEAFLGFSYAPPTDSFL

[3] = target: T2, Serine/threonine-protein kinase TBK1 (Homo sapiens) (UniProt Q9UHD2); experiment: Inhibition of human TBK1 (1 to 729 residues) assessed as enzyme activity at 1 uM using 33P ATP by radioactive filter binding assay; set-up: scale not given: the % may be the effect or the level left
T2 sequence (whole entry): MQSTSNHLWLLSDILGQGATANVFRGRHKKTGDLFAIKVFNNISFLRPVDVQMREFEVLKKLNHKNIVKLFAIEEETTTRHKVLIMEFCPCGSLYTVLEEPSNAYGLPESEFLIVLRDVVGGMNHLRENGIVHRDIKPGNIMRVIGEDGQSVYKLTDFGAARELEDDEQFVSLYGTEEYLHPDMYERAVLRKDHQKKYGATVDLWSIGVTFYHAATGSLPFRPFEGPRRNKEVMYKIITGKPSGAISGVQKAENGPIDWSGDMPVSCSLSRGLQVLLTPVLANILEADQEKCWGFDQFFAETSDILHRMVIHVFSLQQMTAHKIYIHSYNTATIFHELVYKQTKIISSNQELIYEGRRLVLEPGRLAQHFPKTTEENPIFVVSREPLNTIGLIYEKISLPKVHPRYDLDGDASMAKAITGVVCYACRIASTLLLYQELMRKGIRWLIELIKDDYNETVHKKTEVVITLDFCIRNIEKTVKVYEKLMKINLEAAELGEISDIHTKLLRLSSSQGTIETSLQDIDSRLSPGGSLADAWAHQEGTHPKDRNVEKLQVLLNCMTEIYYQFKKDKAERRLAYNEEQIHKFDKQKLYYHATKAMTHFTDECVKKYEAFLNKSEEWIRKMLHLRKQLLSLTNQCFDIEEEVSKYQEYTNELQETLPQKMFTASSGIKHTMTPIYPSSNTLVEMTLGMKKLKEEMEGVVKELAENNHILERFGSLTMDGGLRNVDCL

[4] = target: T3, 3-phosphoinositide-dependent protein kinase 1 (Homo sapiens, UniProt O15530); experiment: Inhibition of PDK1 in human PC3 cells assessed as reduction in AKT Thr308 phosphorylation after 45 mins; format: cell-based, PC-3
T3 sequence (O15530 whole entry): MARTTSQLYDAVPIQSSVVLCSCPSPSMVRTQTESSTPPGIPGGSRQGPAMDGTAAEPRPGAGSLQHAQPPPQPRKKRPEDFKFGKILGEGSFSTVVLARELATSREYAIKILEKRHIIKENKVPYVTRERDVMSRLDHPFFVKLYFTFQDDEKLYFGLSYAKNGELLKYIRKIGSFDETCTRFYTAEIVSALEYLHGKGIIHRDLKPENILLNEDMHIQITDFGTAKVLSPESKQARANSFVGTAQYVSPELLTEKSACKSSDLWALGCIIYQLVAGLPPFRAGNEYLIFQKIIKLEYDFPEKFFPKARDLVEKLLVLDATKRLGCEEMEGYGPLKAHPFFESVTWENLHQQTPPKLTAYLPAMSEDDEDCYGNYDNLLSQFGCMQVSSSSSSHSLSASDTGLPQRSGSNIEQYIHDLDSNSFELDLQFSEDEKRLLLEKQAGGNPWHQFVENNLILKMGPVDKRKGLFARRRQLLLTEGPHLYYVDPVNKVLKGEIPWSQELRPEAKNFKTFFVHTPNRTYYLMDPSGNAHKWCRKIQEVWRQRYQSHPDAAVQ

[5] = target: Calcium/calmodulin-dependent protein kinase type 1 (Homo sapiens) (UniProt Q14012); experiment: Inhibition of human CAMK1 (2 to 369 residues) assessed as enzyme activity at 1 uM using 33P ATP by radioactive filter binding assay; set-up: scale not given: the % may be the effect or the level left
Calcium/calmodulin-dependent protein kinase type 1 (Homo sapiens), sequence (Q14012 whole entry, looked up, the tested form may be a part): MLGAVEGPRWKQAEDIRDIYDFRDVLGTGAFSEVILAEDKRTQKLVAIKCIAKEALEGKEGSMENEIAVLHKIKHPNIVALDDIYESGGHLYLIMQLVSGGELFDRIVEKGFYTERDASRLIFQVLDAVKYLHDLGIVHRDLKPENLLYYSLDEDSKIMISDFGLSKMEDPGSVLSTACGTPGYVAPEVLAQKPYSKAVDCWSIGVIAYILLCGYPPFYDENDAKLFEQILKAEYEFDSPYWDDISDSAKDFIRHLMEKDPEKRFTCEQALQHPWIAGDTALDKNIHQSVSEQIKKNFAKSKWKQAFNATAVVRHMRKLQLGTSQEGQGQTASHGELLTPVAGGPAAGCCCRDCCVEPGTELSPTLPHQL

MAP kinase-activated protein kinase 2 (Homo sapiens), sequence (P49137 whole entry, looked up, the tested form may be a part): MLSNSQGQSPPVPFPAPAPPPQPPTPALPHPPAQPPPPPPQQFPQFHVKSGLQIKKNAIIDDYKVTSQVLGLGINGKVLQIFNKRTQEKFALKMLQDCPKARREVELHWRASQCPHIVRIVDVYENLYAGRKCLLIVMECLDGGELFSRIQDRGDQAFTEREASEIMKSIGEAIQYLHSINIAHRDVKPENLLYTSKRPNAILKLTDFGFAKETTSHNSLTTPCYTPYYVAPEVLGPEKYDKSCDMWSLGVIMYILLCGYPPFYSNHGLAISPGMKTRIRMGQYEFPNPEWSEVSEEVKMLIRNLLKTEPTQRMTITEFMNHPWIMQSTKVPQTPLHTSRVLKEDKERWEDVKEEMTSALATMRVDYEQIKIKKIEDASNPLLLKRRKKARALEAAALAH

| Activity [1] | Activity [2] | Activity [3] | pIC50 [4] | Activity [5] | Structure (SMILES) |
| --- | --- | --- | --- | --- | --- |
| -8% | -42% | -17% | < 5.00 | -6% | Nc1nccc(-c2c[nH]c3ncccc23)n1 [MERIOLIN 1] |
| -3% | -78% | -65% | 4.89 | -49% | CCc1cc(-c2c[nH]c3ncc(-c4cnn(C5CCNCC5)c4)cc23)nc(N)n1 |
| 13% | -12% | -37% | < 5.00 | -3% | CCCCc1cc(-c2c[nH]c3ncccc23)nc(N)n1 |
| -23% | -78% | -93% | 5.64 | -60% | CCCCc1cc(-c2c[nH]c3ncc(-c4cnn(C5CCNCC5)c4)cc23)nc(N)n1 |
